{
  "source": "paper PMC6767919",
  "about": "(European journal of pharmacology, 2019)",
  "key": {"5-HT2C-INI receptor": {"molecular_target": "T1, 5-HT2C-INI receptor (Homo sapiens, UniProt P28335)", "T1 sequence (P28335 33-458)": "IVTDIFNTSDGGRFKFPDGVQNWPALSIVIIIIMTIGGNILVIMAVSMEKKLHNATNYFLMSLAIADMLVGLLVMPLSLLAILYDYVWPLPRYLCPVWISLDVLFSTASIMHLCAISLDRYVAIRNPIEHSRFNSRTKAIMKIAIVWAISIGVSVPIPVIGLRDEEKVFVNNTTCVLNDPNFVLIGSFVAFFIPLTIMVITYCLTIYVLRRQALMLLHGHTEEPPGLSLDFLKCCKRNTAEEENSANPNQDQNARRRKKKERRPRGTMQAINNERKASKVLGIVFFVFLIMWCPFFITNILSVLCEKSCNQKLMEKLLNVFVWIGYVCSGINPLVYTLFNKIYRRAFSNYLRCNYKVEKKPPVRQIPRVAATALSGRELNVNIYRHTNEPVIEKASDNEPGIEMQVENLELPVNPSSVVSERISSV", "assay": "DiscoverX PathHunter β-arrestin recruitment to the 5-HT2C receptor", "format": "cell-based", "conditions": "for Emax (% 5-HT), β-arrestin recruitment / pEC50, β-arrestin recruitment: U2OS cells stably expressing 5-HT2C-INI, agonist 2 h, n = 3"}, "[1]": {"molecular_target": "T2, human 5-HT2C–INI (wild-type, WT) receptor (Homo sapiens, UniProt P28335)", "T2 sequence (P28335 33-458)": "T1 sequence (P28335 33-458)", "format": "cell-based"}, "5-HT2C receptor [2]": {"molecular_target": "T3, 5-HT2C receptor (Homo sapiens, UniProt P28335)", "T3 sequence (P28335 33-458)": "T1 sequence (P28335 33-458)", "assay": "Inverse agonist reduction of basal 5-HT2C-mediated IP production", "format": "cell-based", "conditions": "CHO-K1 cells; basal 5-HT2C-mediated IP production after 20 h of vehicle; n = 3"}, "PKC": {"molecular_target": "PKC", "conditions": "read-out: Ki for PKC; ref Herbert et al., 1990; Absolinova et al., 2010; cited from earlier work"}, "5-HT2C receptor [3]": {"molecular_target": "T3, 5-HT2C receptor", "assay": "Effect of PKC inhibition on 5-HT-induced 5-HT2C receptor desensitization", "conditions": "10 μM chelerythrine; data not shown"}, "[4]": {"assay": "Solubility in the desensitization assay", "format": "physicochemical"}, "5-HT2C receptor (WT)": {"molecular_target": "T4, 5-HT2C receptor (WT) (Homo sapiens, UniProt P28335)", "T4 sequence (P28335 33-458)": "T1 sequence (P28335 33-458)", "format": "cell-based"}, "5-HT2C receptor [5]": {"molecular_target": "T3, 5-HT2C receptor", "assay": "Inverse agonist sensitization of 5-HT2C receptor IP signaling", "format": "cell-based", "conditions": "pretreatment for 8 h or less; data not shown"}, "5-HT2C receptor [6]": {"molecular_target": "T3, 5-HT2C receptor", "conditions": "ref Schlag et al., 2004; cited from earlier work"}},
  "note": "Marks after values point to notes of the source that are not given here.",
  "data": [
    {"smiles": "C[C@H](N)Cn1ccc2cc(F)c(Cl)cc21", "note": "[Ro 60–0175]", "values": [
      {"measurement": "Emax (% 5-HT), β-arrestin recruitment", "setting": "5-HT2C-INI receptor", "result": "92 ± 4", "unit": "% 5-HT"},
      {"measurement": "pEC50, β-arrestin recruitment", "setting": "5-HT2C-INI receptor", "result": "7.86 ± 0.11"},
      {"measurement": "Emax (% 5-HT), inositol phosphate production", "setting": "[1]", "result": "99 ± 6", "unit": "% 5-HT"},
      {"measurement": "agonist efficacy class relative to 5-HT, IP production", "setting": "[1]", "result": "full agonists"},
      {"measurement": "pEC50, inositol phosphate production", "setting": "[1]", "result": "8.30 ± 0.05"}
    ]},
    {"smiles": "Clc1cccc(N2CCNCC2)c1", "note": "[mCPP, 1-(3-chlorophenyl)piperazine]", "values": [
      {"measurement": "Emax (% 5-HT), inositol phosphate production", "setting": "[1]", "result": "88 ± 10", "unit": "% 5-HT"}
    ]},
    {"smiles": "O=C1Nc2cc(Cl)c(Cl)cc2N2CCNCC12", "note": "(stereo not drawn) [WAY-161503]", "values": [
      {"measurement": "Emax (% 5-HT), inositol phosphate production", "setting": "[1]", "result": "100 ± 2", "unit": "% 5-HT"},
      {"measurement": "agonist efficacy class relative to 5-HT, IP production", "setting": "[1]", "result": "full agonists"},
      {"measurement": "pEC50, inositol phosphate production", "setting": "[1]", "result": "8.07 ± 0.08"}
    ]},
    {"smiles": "CN(C)[C@@H]1Cc2ccccc2[C@@H](c2cccc(Br)c2)C1", "note": "(relative stereo) [MBP, (2S,4R)-(−)-trans-4-(3’[meta]-bromophenyl)-N,N-dimethyl-1,2,3,4-tetrahydronaphthalen-2-amine]", "values": [
      {"measurement": "effect on 5-HT2C receptor β-arrestin recruitment (in words)", "setting": "5-HT2C-INI receptor", "result": "negligible effects"},
      {"measurement": "Emax (% 5-HT), β-arrestin recruitment", "setting": "5-HT2C-INI receptor", "result": "7 ± 4^a % 5-HT"},
      {"measurement": "pEC50, β-arrestin recruitment", "setting": "5-HT2C-INI receptor", "result": "6.84 ± 0.10^a"},
      {"measurement": "Emax (% 5-HT), inositol phosphate production", "setting": "[1]", "result": "73 ± 4^a % 5-HT"},
      {"measurement": "agonist efficacy class relative to 5-HT, IP production", "setting": "[1]", "result": "partial agonists"},
      {"measurement": "pEC50, inositol phosphate production", "setting": "[1]", "result": "7.76 ± 0.04"}
    ]},
    {"smiles": "CN1C[C@@H](NS(=O)(=O)N(C)C)C[C@@H]2c3cccc4c3c(cn4C)C[C@H]21", "note": "[mesulergine]", "values": [
      {"measurement": "Imax (% decrease from basal), inositol phosphate reduction", "setting": "5-HT2C receptor [2]", "result": "17 ± 2", "unit": "% decrease from basal"}
    ]},
    {"smiles": "COc1ccc2c(c[n+](C)c3c4cc5c(cc4ccc23)OCO5)c1OC", "note": "[chelerythrine]", "values": [
      {"measurement": "Ki", "setting": "PKC", "result": 700, "unit": "nM"},
      {"measurement": "effect of chelerythrine on 5-HT-induced IP production in non-desensitized cells", "setting": "5-HT2C receptor [3]", "result": "no effect"}
    ]},
    {"smiles": "CN(C)[C@@H]1Cc2ccccc2[C@@H](c2ccccc2)C1", "note": "(relative stereo) [PAT, (2S,4R)-(−)-trans-4-phenyl-N,N-dimethyl-1,2,3,4-tetrahydronaphthalen-2-amine]", "values": [
      {"measurement": "Emax (% 5-HT), inositol phosphate production", "setting": "[1]", "result": "50 ± 1^a % 5-HT"}
    ]},
    {"smiles": "C[C@H]1CNCCc2ccc(Cl)cc21", "note": "[lorcaserin]", "values": [
      {"measurement": "Emax (% 5-HT), β-arrestin recruitment", "setting": "5-HT2C-INI receptor", "result": "118 ± 5^a % 5-HT"},
      {"measurement": "Emax (% 5-HT), inositol phosphate production", "setting": "[1]", "result": "100 ± 1", "unit": "% 5-HT"}
    ]},
    {"smiles": "CN(C)[C@@H]1Cc2ccccc2[C@@H](C2CCCCC2)C1", "note": "(relative stereo) [CAT, (2S,4R)-(−)-trans-4-cyclohexyl-N,N-dimethyl-1,2,3,4-tetrahydronaphthalen-2-amine]", "values": [
      {"measurement": "Imax (% decrease from basal), inositol phosphate reduction", "setting": "5-HT2C receptor [2]", "result": "26 ± 4", "unit": "% decrease from basal"},
      {"measurement": "pIC50, inositol phosphate reduction", "setting": "5-HT2C receptor [2]", "result": "7.17 ± 0.21"}
    ]},
    {"smiles": "CN(C)[C@@H]1Cc2ccccc2[C@@H](c2cccc(C(F)(F)F)c2)C1", "note": "(relative stereo) [MFP, (2S,4R)-(−)-trans-4-(3’[meta]-trifluoromethylphenyl)-N,N-dimethyl-1,2,3,4-tetrahydronaphthalene-2-amine]", "values": [
      {"measurement": "Imax (% decrease from basal), inositol phosphate reduction", "setting": "5-HT2C receptor [2]", "result": "25 ± 3", "unit": "% decrease from basal"},
      {"measurement": "pIC50, inositol phosphate reduction", "setting": "5-HT2C receptor [2]", "result": "7.62 ± 0.10"}
    ]},
    {"smiles": "O=C1CCc2ccc(OCCCCN3CCN(c4cccc(Cl)c4Cl)CC3)cc2N1", "note": "[aripiprazole]", "values": [
      {"measurement": "effect on 5-HT2C receptor β-arrestin recruitment (in words)", "setting": "5-HT2C-INI receptor", "result": "negligible effects"},
      {"measurement": "Emax (% 5-HT), β-arrestin recruitment", "setting": "5-HT2C-INI receptor", "result": "8 ± 1^a % 5-HT"},
      {"measurement": "solubility in the desensitization assay", "setting": "[4]", "result": "low solubility"},
      {"measurement": "desensitization of 5-HT2C-PLC signaling (in words)", "setting": "5-HT2C receptor (WT)", "result": "did not desensitize"},
      {"measurement": "Emax (% 5-HT), inositol phosphate production", "setting": "[1]", "result": "40 ± 4^a % 5-HT"}
    ]},
    {"smiles": "Cn1ccc2cc3c(cc21)CCN3C(=O)Nc1cccnc1", "note": "[SB 206553]", "values": [
      {"measurement": "sensitization of the 5-HT2C receptor after short pretreatment", "setting": "5-HT2C receptor [5]", "result": "does not sensitize"},
      {"measurement": "Imax (% decrease from basal), inositol phosphate reduction", "setting": "5-HT2C receptor [2]", "result": "32 ± 5", "unit": "% decrease from basal"},
      {"measurement": "sensitization of 5-HT2C receptors after 30 min pretreatment", "setting": "5-HT2C receptor [6]", "result": "insufficient to sensitize"}
    ]},
    {"smiles": "COc1cc(CC(C)N)c(OC)cc1I", "note": "(racemic) [DOI, (±) 2,5-dimethoxy-4-iodoamphetamine]", "values": [
      {"measurement": "Emax (% 5-HT), inositol phosphate production", "setting": "[1]", "result": "82 ± 4", "unit": "% 5-HT"},
      {"measurement": "agonist efficacy class relative to 5-HT, IP production", "setting": "[1]", "result": "full agonists"},
      {"measurement": "pEC50, inositol phosphate production", "setting": "[1]", "result": "8.32 ± 0.10"}
    ]}
  ]
}
